Measurements as given in US7825093B2 (priority 2006, dated 2010).
“Also recorded” adds a separate entry of the source. Bridge positions count the residues as written; N and C are the ends. Ends that are not written are not given here. Peptide text beside a SMILES is read from it.

B1: FcLoop-L2-ShK-L2: ShK inserted into the human IgG1 Fc loop with 2-Gly linkers (protein)
chain: MDKTHTCPPCPAPELLGGPSVFLFPPKPKDTLMISRTPEVTCVVVDVSHEDPEVKFNWYVDGVEVHNAKTKPREEQYNSTYRVVSVLTVLHQDWLNGKEYKCKVSNKALPAPIEKTISKAKGQPREPQVYTLPPSRDELGGRSCIDTIPKSRCTAFQCKHSMKYRLSFCRKTCGTCGGTKNQVSLTCLVKGFYPSDIAVEWESNGQPENNYKTTPPVLDSDGSFFLYSKLTVDKSRWQQGNVFSCSVMHEALHNHYTQKSLSLSPGK
modifications: Definition of Artificial Sequence: Synthetic protein
B2: FcLoop-L2-OsK1-L2: OsK1 inserted into the human IgG1 Fc loop with 2-Gly linkers (protein)
chain: MDKTHTCPPCPAPELLGGPSVFLFPPKPKDTLMISRTPEVTCVVVDVSHEDPEVKFNWYVDGVEVHNAKTKPREEQYNSTYRVVSVLTVLHQDWLNGKEYKCKVSNKALPAPIEKTISKAKGQPREPQVYTLPPSRDELGGGVIINVKCKISRQCLEPCKKAGMRFGKCMNGKCHCTPKGGTKNQVSLTCLVKGFYPSDIAVEWESNGQPENNYKTTPPVLDSDGSFFLYSKLTVDKSRWQQGNVFSCSVMHEALHNHYTQKSLSLSPGK
modifications: Definition of Artificial Sequence: Synthetic protein
B3: MGGHHHHHHGGGPSVFLFPPKPKDTLMISRTPEVTCVVVDVSHEDPEVKFNWYVDGVEVHNAKTKPREEQYNSTYRVVSVLTVLHQDWLNGKEYKCKVSNKALPAPIEKTISGGGGSGGGGSGVIINVKCKISRQCLEPCKKAGMRFGKCMNGKCHCTPK (protein)
chain: MGGHHHHHHGGGPSVFLFPPKPKDTLMISRTPEVTCVVVDVSHEDPEVKFNWYVDGVEVHNAKTKPREEQYNSTYRVVSVLTVLHQDWLNGKEYKCKVSNKALPAPIEKTISGGGGSGGGGSGVIINVKCKISRQCLEPCKKAGMRFGKCMNGKCHCTPK

Columns and labels:
[1] = tested on: IFN-g production in human whole blood; assay type: cell-based; conditions: for IC50: read-out: WB/IFNg (IC50)
[2] = tested on: IL-2 production in human whole blood; conditions: for IC50: read-out: WB/IL-2 (IC50)
human Kv1.3 channel = human Kv1.3 channel (Homo sapiens, UniProt P22001); assay type: cell-based
human Kv1.3 (CHO) = molecular target: T1, human Kv1.3 (CHO) (Homo sapiens, UniProt P22001); assay type: cell-based
T1 construct: expressed in transfected cells; host or cells: CHO

human Kv1.1 (HEK293) = molecular target: T2, human Kv1.1 (HEK293) (Homo sapiens, UniProt Q09470); assay type: cell-based
T2 construct: expressed in transfected cells; host or cells: HEK293

[3] = tested on: CD40L on T cells in human whole blood; assay type: cell-based
[4] = tested on: IL-2R on T cells in human whole blood; assay type: cell-based

T2 sequence (Q09470 whole entry): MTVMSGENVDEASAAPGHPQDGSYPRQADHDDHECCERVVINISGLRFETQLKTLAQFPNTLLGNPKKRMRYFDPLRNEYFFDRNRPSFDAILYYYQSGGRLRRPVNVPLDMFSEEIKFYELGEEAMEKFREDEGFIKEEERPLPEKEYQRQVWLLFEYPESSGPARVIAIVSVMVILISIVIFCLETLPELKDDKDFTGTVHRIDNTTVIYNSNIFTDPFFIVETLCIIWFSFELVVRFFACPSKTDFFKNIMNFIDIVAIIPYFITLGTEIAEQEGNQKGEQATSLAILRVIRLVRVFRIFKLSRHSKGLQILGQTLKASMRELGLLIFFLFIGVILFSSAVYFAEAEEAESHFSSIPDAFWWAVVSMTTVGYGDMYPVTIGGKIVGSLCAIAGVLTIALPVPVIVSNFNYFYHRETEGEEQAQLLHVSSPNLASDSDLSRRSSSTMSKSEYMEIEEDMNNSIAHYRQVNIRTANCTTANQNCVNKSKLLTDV
T1 sequence (P22001 whole entry): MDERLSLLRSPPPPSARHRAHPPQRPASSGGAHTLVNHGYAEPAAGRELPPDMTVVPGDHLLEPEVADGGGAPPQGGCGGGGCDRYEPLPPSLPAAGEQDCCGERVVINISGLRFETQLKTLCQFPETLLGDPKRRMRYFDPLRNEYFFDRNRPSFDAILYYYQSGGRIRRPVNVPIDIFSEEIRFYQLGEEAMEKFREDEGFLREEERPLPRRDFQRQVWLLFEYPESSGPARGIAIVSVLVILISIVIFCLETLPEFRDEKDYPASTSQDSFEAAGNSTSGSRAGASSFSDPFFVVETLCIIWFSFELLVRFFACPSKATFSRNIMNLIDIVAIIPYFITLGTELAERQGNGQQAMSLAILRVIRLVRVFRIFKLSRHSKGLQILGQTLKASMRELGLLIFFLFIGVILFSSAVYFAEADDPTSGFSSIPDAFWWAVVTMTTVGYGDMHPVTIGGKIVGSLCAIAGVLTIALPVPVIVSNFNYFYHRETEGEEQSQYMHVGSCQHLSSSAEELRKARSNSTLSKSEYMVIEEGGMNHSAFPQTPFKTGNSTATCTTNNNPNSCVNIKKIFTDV
human Kv1.3 channel, sequence (P22001 whole entry): as above

Molecule	IC50 [1] [nM]	IC50 [2] [nM]	further results
GVIINVKCKISRQCLKPCKDAGMRFGKCMNGKCHC [compound 1396]	6.99	3.94	
GVIINVKCKISRQCLKPCKDAGMRFGKCMNGKCHCGGG [compound 1274]	3.64	2.64	
GIINVKCKISAQCLKPCRDAGMRFGKCMNGKCACTPK [compound 4916]	2.24	1.5	
SEQ ID No: 4989: OSK1 analog without beta strand 1 (labeled des 1-7), Table 42 (CKISRQCLKPCKDAGMRFGKCMNGKCHC-NH2; ends and bridges not checked)			blockade of the whole blood cytokine response (IL-2, IFNg), in words [2]: still retain activity in blocking inflammation
Fc-L-KTX1: bacterially expressed Fc-linker-KTX1 peptibody			block of human Kv1.3 current (in words) (human Kv1.3 channel): concentration dependent block
GVIINVKCKISRQCLKPCKDAGMRFGKCMNGKCHCTPK [compound 296]	1.32	1.58	
CC[C@H](C)[C@@H]1NC(=O)[C@H](CCCCN)NC(=O)[C@@H](NC(=O)[C@H](CCCCN)NC(=O)[C@@H](NC(=O)[C@H](CC(N)=O)NC(=O)[C@@H](NC(=O)[C@@H](NC(=O)[C@@H](NC(=O)CN)C(C)C)[C@@H](C)CC)[C@@H](C)CC)C(C)C)CSSC[C@@H]2NC(=O)[C@H](CCCCN)NC(=O)CNC(=O)[C@H](Cc3ccccc3)NC(=O)[C@H](CCCNC(=N)N)NC(=O)[C@H](CCSC)NC(=O)CNC(=O)[C@H](C)NC(=O)[C@H](CCCCN)NC(=O)[C@H](CCCCN)NC(=O)[C@@H]3CSSC[C@@H](C(=O)N[C@H](C(=O)N4CCC[C@H]4C(=O)N[C@@H](CCCCN)C(=O)O)[C@@H](C)O)NC(=O)[C@H](Cc4c[nH]cn4)NC(=O)[C@H](CSSC[C@H](NC(=O)[C@H](CCC(N)=O)NC(=O)[C@H](CCCNC(=N)N)NC(=O)[C@H](CO)NC1=O)C(=O)N[C@@H](CC(C)C)C(=O)N[C@@H](CCC(=O)O)C(=O)N1CCC[C@H]1C(=O)N3)NC(=O)[C@H](CCCCN)NC(=O)CNC(=O)[C@H](CC(N)=O)NC(=O)[C@H](C)NC2=O [OSK1[Ala-29]] (H-GVIINVKCKISRQCLEPCKKAGMRFGKCANGKCHCTPK-OH; disulfide 8-28, 14-33, 18-35)			inhibition of the Kv1.3 current by IonWorks (in words) (human Kv1.3 (CHO)): potent inhibition of the Kv1.3 current; selectivity over Kv1.1 by IonWorks (in words) (human Kv1.1 (HEK293)): improved selectivity over Kv1.1; potency relative to cyclosporin A in blocking the cytokine response [2]: several orders of magnitude more potent
GVIINVKCKISRQCLKPCKDAGMRFGKCMNGKCHCYPK [compound 298]	0.923	0.639	
Fc-L10-ShK[2-35]: human IgG1 Fc fused via 10 amino acid linker to ShK[2-35]			thapsigargin-induced IFN-g production (in words) [1]: suppressed; also recorded: blocked; thapsigargin-induced upregulation of CD40L on T cells (in words) [3]: blocked; thapsigargin-induced upregulation of the IL-2R on T cells (in words) [4]: blocked; stability in whole blood [2]: stable in whole blood at 37 °C for up to 48 hours
GGGGSGVIINVKCKISRQCLEPCKKAGMRFGKCMNGKCHCTPK [compound 1395]	2.2	1.36	
GVIINVKCKISRQCLKPCKDAGMRFGKCMNGKCACTPK [compound 4990]	26.6	65.5	
GVIINVKCKISAQCLKPCKDAGMRFGKCMNGKCHCTPK [compound 1392]	0.092	0.041	
IbTx: BKCa channel inhibitor peptide, Bachem (QFTDVDCSVSKECWSVCKDLFGVDRGKCMGKKCRCYQ; Definition of Artificial Sequence: Synthetic peptide) [reference compound]			thapsigargin-induced IFN-g production (in words) [1]: no significant activity; thapsigargin-induced upregulation of CD40L on T cells (in words) [3]: no significant activity; thapsigargin-induced upregulation of the IL-2R on T cells (in words) [4]: no significant activity; thapsigargin-induced IL-2 production (in words) [2]: no significant activity
B1			IC50 values, whole blood cytokine response [2]: pM range; blockade of the whole blood cytokine response (IL-2, IFNg), in words [2]: potent blockade of the whole blood cytokine response
B2			IC50 values, whole blood cytokine response [2]: pM range; blockade of the whole blood cytokine response (IL-2, IFNg), in words [2]: potent blockade of the whole blood cytokine response
B3	55.2	38.5	
